# Laboratory results published in US20140000476A1, “HYDROPHOBIC AND LIPOPHOBIC COMPOSITION COMPRISING COMPOUNDS HAVING A BISPHOSPHONIC AND THIOL GROUP” (SURFACTIS TECHNOLOGIES, priority 2010, published 2014).
# Assay: Contact angle on coated gold
# Format: physicochemical
# Details: molecule alone at 10^−3M, soaking 30 minutes
# Method: Degrease the parts by washing in a solvent (acetone or IPA) under ultrasound for 5 minutes then dry the parts under a stream of hot air.
# Deposit • Place the part or parts in a container with an adapted shape • Cover the part or parts with coating solution (thiol, BP or BP/thiol-PFPE mixture), • Incubate between 5 minutes and 360 minutes, • Eliminate the supernatant—remove the part, • The part is drip dried (centrifugation).
# Dehydration—Rinsing • The part which received the deposit is placed in an oven at 120° C. for a period ranging from 6 to 15 h (only for rubies and silicon), • The part is brought back to room temperature then immersed in IPA under ultrasound for 2 minutes, • The part is dried under a stream of hot air. […]
# The lipophobic effect was evaluated by measuring the contact angles of a test oil having surface tension of 33 mN/m on different surfaces.
# According to the deposit procedure described in paragraph 3, the materials were treated by the mixture of the thiol molecule I.3. with the BP molecule II.1. dissolved in IPA. The contact angles were measured before and after treatment of the surface. […]
# The properties of thiol and bisphosphonate molecules in isolation were measured on the surfaces of steel and gold-plated substrates using solutions at 10^−3 M and in isopropanol in accordance with the protocol described in example 3 above, with a soaking time of 5 minutes.
smiles,measurement,setting,value
O=C(NCCS)C(F)(F)C(F)(F)C(F)(F)C(F)(F)C(F)(F)C(F)(F)C(F)(F)F [I.5],contact angle of the gold-plated brass part with the test oil,solvent IPA,67.6 ± 3.6°
same,contact angle of the gold-plated brass part with the test oil,solvent MMCC (Biosane T212),49.5 ± 2.5°
